For 17 compounds, Ki and MIC results are on record in US8394803B2, “Gyrase inhibitors and uses thereof” (Vertex Pharmaceuticals Incorporated, priority 2005, dated 2013).

The Ki is the dissociation constant of the complex between target and ligand, obtained from inhibition or displacement.

The target of one assay is E. coli Gyrase (Escherichia coli, UniProt P0AES6). Kind of assay: DNA Gyrase ATPase assay (E. coli Gyrase Ki). It counts as biochemical. Here is the method: The ATP hydrolysis activity of DNA gyrase was measured by coupling the production of ADP through pyruvate kinase/lactate dehydrogenase to the oxidation of NADH. This method has been described previously (Tamura and Gellert, 1990, J. Biol. Chem., 265, 21342).
ATPase assays were carried out at 30° C. in buffered solutions containing 100 mM TRIS pH 7.6, 1.5 mM MgCl2, 150 mM KCl. The coupling system contains (final concentrations) 2.5 mM phosphoenol pyruvate, 200 μM nicotinamide adenine dinucleotide (NADH), 1 mM DTT, 30 ug/ml pyruvate kinase, and 10 ug/ml lactate dehydrogenase. 40 nanomolar enzyme and a DMSO solution of the inhibitor to a final concentration of 4% was added and the reaction mixture was allowed to incubate for 10 minutes at 30° C. The reaction was then started by the addition of ATP to a final concentration of 0.9 mM and the rate of NADH disappearance at 340 nanometers was measured over the course of 10 minutes. The Ki values were determined from rate versus concentration profiles.
The compound numbers correspond to the compound numbers in Table 2. Compounds having an activity designated as “A” provided a Ki inhibition value equal to or above 0.100 micromolar. Compounds having an activity designated as “B” provided a Ki inhibition value between 0.050 micromolar and 0.100 micromolar. […] The term “ND” means no data.

A further assay has as its system Staphylococcus aureus. Kind of assay: Susceptibility testing in liquid media (MIC), S. aureus. It counts as cell-based. The note with it: 35° C. overnight, read-out: S. aureus MIC range. Here is the method:
(§1) Compounds of this invention were also tested for antimicrobial activity by susceptibility testing in liquid media. Such assays were performed within the guidelines of the latest NCCLS document governing such practices: “M7-A5 Methods for dilution Antimicrobial Susceptibility Tests for Bacteria that Grow Aerobically; Approved Standard—Fifth Edition (2000)”. Other publications such as “Antibiotics in Laboratory Medicine” (Edited by V. Lorian, Publishers Williams and Wilkins, 1996) provide essential practical techniques in laboratory antibiotic testing. Essentially, several discrete bacterial colonies of Staphylococcus aureus, Streptococcus pneumoniae, Haemophilus influenzae, or Enterococcus faecalis (3 to 7) from a freshly streaked plate were transferred to an appropriate rich broth medium such as MHB, and supplemented where appropriate for the more fastidious organisms. This was grown overnight to high density followed by a 1 or 2-thousand-fold dilution to give an inoculation density of between 5×10^5 and 5×10^6 CFU per mL. Alternatively, the freshly picked colonies can be incubated at 37° C. for about 4 to 8 hours until the culture equals or exceeds a turbidity of a 0.5 McFarland standard (approximately 1.5×10^8 cells per mL) and diluted to give the same CFU per mL as above. In a more convenient method, the inoculum was prepared using a commercially available mechanical device (the BBL PROMPT System) that involves touching five colonies directly with a wand, containing crosshatch grooves at its bottom, followed by suspension of the bacteria in an appropriate volume of saline. Dilution to the appropriate inoculum cell density was made from this cell suspension. The broth used for testing consists of MHB supplemented with 50 mg per L of Ca^2+ and 25 mg per L of Mg^2+. Standard dilution panels of control antibiotics were made and stored as in the NCCLS standard M7-A5, the dilution range typically being in the 128 μg per mL to […] (by 2-fold serial dilution). The test compounds were dissolved and diluted fresh for experimentation on the same day; the same or similar ranges of concentration as above being used. The test compounds and controls were dispensed into a multiwell plate and test bacteria added such that the final inoculation was approximately 5×10^4 CFU per well and the final volume was 100 μL. The plates were incubated at 35° C. overnight (16 to 20 hours) and checked by eye for turbidity or quantitated with a multiwell plate reader. […] Such determinations were also compared to the appropriate tables contained in the above two publications to ensure that the range of antibacterial activity is within the acceptable range for this standardized assay.
(§2) The compound numbers correspond to the compound numbers in Table 2.

In another assay the test system is Streptococcus pneumoniae. Nature of the assay: Susceptibility testing in liquid media (MIC), S. pneumoniae. Type of assay: cell-based. The settings on record: 35° C. overnight, read-out: S. pneumoniae MIC range. Here is the method:
as §1, §2

A further assay has as its system Haemophilus influenzae. Nature of the assay: Susceptibility testing in liquid media (MIC), H. influenzae. It counts as cell-based. The settings on record: 35° C. overnight, read-out: H. influenzae MIC range. The procedure:
as §1, §2

The next assay relates to Enterococcus faecalis. Nature of the assay: Susceptibility testing in liquid media (MIC), E. faecalis. It counts as cell-based. The note with it: 35° C. overnight, read-out: E. faecalis MIC range. Here is the method: as §1, §2
The target in the next assay is S. aureus TopoIV (Staphylococcus aureus, UniProt P0C1S7). Kind of assay: DNA Topo IV ATPase assay (S. aureus TopoIV Ki). It counts as biochemical. The note with it: 30° C., read-out: S. aureus Topo IV Ki Inhibition Ranges (Activity). The procedure:
DNA Topo IV ATPase Assay:
The conversion of ATP to ADP by TopoIV enzyme was coupled to the conversion of NADH to NAD+ and measured by the change in absorbance at 340 nm. Topo4 was incubated with inhibitor (4% DMSO final) in buffer for 10 minutes at 30° C. Reaction was initiated with ATP and rates were monitored continuously for 20 minutes at 30° C. on a Molecular Devices SpectraMAX plate reader. The inhibition constant, Ki, was determined from plots of rate vs. [Inhibitor] fit to the Morrison Equation for tight binding inhibitors.
S. aureus TopoIV Buffer: 100 mM Tris 7.5, 2 mM MgCl2, 200 mM K●Glutamate, 2.5 mM phosphoenol pyruvate, 0.2 mM NADH, 1 mM DTT, 4.25 μg/mL linearized DNA, 50 μg/mL BSA, 30 μg/mL pyruvate kinase, and 10 μg/mL lactate dehyrodgenase (LDH).
The compound numbers correspond to the compound numbers in Table 2. Compounds having an activity designated as “A” provided a Ki inhibition value equal to or above 0.500 micromolar. […] The term “ND” means no data.

Setting [1] is: ATPase assay, 30° C., 0.9 mM ATP, read-out: E. coli Gyrase Ki Inhibition Ranges (Activity).

Converted amounts (≈) assume the structure as drawn. Where two headings read alike, the source gives them in different places.

Sequence of S. aureus TopoIV (P0C1S7 whole entry): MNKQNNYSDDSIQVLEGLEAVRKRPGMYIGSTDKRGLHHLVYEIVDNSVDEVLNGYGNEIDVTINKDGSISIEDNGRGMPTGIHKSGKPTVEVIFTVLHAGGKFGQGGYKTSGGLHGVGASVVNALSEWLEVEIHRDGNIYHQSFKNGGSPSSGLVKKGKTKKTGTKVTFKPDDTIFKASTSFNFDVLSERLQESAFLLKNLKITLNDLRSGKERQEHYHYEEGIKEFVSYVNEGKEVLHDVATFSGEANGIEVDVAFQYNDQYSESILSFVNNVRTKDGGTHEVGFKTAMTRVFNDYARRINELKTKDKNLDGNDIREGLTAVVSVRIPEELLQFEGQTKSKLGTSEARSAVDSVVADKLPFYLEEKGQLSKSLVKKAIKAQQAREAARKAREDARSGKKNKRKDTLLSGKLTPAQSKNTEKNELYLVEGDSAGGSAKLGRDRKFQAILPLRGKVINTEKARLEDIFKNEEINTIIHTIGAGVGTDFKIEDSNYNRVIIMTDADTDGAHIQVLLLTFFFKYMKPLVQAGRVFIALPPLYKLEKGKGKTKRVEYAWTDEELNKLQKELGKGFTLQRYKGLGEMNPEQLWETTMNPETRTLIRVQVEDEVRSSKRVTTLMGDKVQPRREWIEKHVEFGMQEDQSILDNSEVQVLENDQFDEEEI
Sequence of S. aureus TopoIV (P0C1U9 whole entry partner): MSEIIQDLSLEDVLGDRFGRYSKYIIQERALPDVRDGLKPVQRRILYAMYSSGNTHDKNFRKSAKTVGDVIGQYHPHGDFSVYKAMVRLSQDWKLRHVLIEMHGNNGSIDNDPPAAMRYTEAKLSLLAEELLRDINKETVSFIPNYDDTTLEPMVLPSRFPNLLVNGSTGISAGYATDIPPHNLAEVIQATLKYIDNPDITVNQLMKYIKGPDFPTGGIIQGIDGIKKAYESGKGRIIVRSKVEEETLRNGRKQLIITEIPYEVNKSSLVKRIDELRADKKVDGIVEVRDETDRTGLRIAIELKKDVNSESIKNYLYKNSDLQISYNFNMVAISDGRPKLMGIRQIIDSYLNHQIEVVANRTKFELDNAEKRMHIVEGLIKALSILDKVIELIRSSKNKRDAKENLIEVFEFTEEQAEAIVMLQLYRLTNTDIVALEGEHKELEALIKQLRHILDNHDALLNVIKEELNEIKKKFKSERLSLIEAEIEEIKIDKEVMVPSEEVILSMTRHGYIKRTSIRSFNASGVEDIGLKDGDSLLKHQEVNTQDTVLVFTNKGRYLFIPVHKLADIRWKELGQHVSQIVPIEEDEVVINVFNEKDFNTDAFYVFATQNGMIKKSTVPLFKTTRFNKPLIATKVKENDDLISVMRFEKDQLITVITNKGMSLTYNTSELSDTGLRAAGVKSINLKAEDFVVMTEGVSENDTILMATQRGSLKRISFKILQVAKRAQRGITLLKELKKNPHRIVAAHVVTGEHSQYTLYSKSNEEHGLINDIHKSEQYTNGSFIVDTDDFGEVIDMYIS

As to `CCNC(=O)Nc1nc2cc(OC)cc(-n3cccn3)c2[nH]1` [Compound I-1], the Ki at E. coli Gyrase (setting [1]) fell in the range of 50 to 100 nM. In addition, the MIC is more than 7 µg/mL with Staphylococcus aureus, 1 to 7 µg/mL (≈ 3.33 to 23.3 µM) in the assay on Streptococcus pneumoniae, more than 7 µg/mL in the assay with Haemophilus influenzae and more than 7 µg/mL in the assay on Enterococcus faecalis.
For the compound `CCNC(=O)Nc1nc2cc(C(=O)O)cc(-c3ncccc3F)c2[nH]1` [Compound I-2], at E. coli Gyrase (setting [1]), the Ki was more than 100 nM. Further, the MIC in the assay with Staphylococcus aureus, with Streptococcus pneumoniae, with Haemophilus influenzae and in the assay with Enterococcus faecalis was more than 7 µg/mL in each case.
For the compound `CCNC(=O)Nc1nc2cc(C(=O)NC)cc(-c3ncccc3F)c2[nH]1` [Compound I-3], the Ki on E. coli Gyrase (setting [1]) was less than 50 nM. For the same compound, the MIC is more than 7 µg/mL in the assay with Staphylococcus aureus, less than 1 µg/mL with Streptococcus pneumoniae, more than 7 µg/mL in the assay with Haemophilus influenzae and less than 1 µg/mL in the assay with Enterococcus faecalis.
On to `CCNC(=O)Nc1nc2cc(C#N)cc(-c3ncccc3F)c2[nH]1` [Compound I-4], for which the inhibitory constant (Ki) on E. coli Gyrase (setting [1]) was in the range of 50 to 100 nM. The MIC with Staphylococcus aureus is more than 7 µg/mL; with Streptococcus pneumoniae it was less than 1 µg/mL; with Haemophilus influenzae it was more than 7 µg/mL; in the assay with Enterococcus faecalis, 1 to 7 µg/mL (≈ 3.08 to 21.6 µM).
Turning to `CCNC(=O)Nc1nc2cc(N3CCN(C(C)=O)CC3)cc(-c3ncccn3)c2[nH]1` [Compound I-5], at E. coli Gyrase (setting [1]), the Ki was less than 50 nM. For the same compound, the MIC in the assay on Staphylococcus aureus is more than 7 µg/mL; with Streptococcus pneumoniae, less than 1 µg/mL; in the assay on Haemophilus influenzae, more than 7 µg/mL; in the assay with Enterococcus faecalis it was 1 to 7 µg/mL (≈ 2.45 to 17.1 µM).
Regarding `CCNC(=O)Nc1nc2cc(N3CCCC3=O)cc(-c3ncccn3)c2[nH]1` [Compound I-6], the inhibitory constant (Ki) at E. coli Gyrase (setting [1]) was less than 50 nM. Further, the MIC was more than 7 µg/mL in the assay on Staphylococcus aureus, less than 1 µg/mL in the assay on Streptococcus pneumoniae, more than 7 µg/mL in the assay with Haemophilus influenzae and 1 to 7 µg/mL (≈ 2.74 to 19.2 µM) with Enterococcus faecalis.
For the compound `CCNC(=O)Nc1nc2cc(C(=O)OC)cc(-c3ncccc3F)c2[nH]1` [Compound I-7], the Ki on E. coli Gyrase (setting [1]) was less than 50 nM. Moreover, the MIC is more than 7 µg/mL in the assay on Staphylococcus aureus, 1 to 7 µg/mL (≈ 2.8 to 19.6 µM) with Streptococcus pneumoniae, more than 7 µg/mL in the assay on Haemophilus influenzae and 1 to 7 µg/mL (≈ 2.8 to 19.6 µM) in the assay with Enterococcus faecalis.
Take `CCNC(=O)Nc1nc2cc(/C(C)=C/C(=O)N(C)C)cc(-c3ncccc3F)c2[nH]1` [Compound I-8]: the Ki at E. coli Gyrase is 50 to 100 nM; at S. aureus TopoIV it was not above 250 nM. Besides, the MIC was more than 7 µg/mL with Staphylococcus aureus, less than 1 µg/mL with Streptococcus pneumoniae, more than 7 µg/mL with Haemophilus influenzae and 1 to 7 µg/mL (≈ 2.44 to 17.1 µM) in the assay with Enterococcus faecalis.
Consider `CCNC(=O)Nc1nc2cc(C(C)CC(=O)NC)cc(-c3ncccc3F)c2[nH]1` (centres unmarked) [Compound I-9], for which the inhibition constant (Ki) at E. coli Gyrase was more than 100 nM; at S. aureus TopoIV it was not below 500 nM. In addition, the MIC is more than 7 µg/mL in the assay with Staphylococcus aureus, 1 to 7 µg/mL (≈ 2.51 to 17.6 µM) in the assay on Streptococcus pneumoniae, more than 7 µg/mL in the assay with Haemophilus influenzae and more than 7 µg/mL in the assay on Enterococcus faecalis.
Regarding `CCNC(=O)Nc1nc2cc(/C(C)=C/C(=O)NC)cc(-c3ncccc3F)c2[nH]1` [Compound I-10], the inhibition constant Ki on E. coli Gyrase was less than 50 nM; at S. aureus TopoIV, not above 250 nM. The MIC in the assay on Staphylococcus aureus is more than 7 µg/mL; with Streptococcus pneumoniae, less than 1 µg/mL; with Haemophilus influenzae, more than 7 µg/mL; with Enterococcus faecalis, less than 1 µg/mL.
`CCNC(=O)Nc1nc2cc(C3CCN(C)C(=O)C3)cc(-c3ncccc3F)c2[nH]1` (centres unmarked) [Compound I-13]: the Ki was less than 50 nM on E. coli Gyrase and not above 250 nM on S. aureus TopoIV. The MIC with Staphylococcus aureus is 1 to 7 µg/mL (≈ 2.44 to 17.1 µM); in the assay on Streptococcus pneumoniae, less than 1 µg/mL; in the assay on Haemophilus influenzae, more than 7 µg/mL; in the assay on Enterococcus faecalis, less than 1 µg/mL.
For the compound `CCNC(=O)Nc1nc2cc(NCc3ccccn3)cc(-c3ncccn3)c2[nH]1` [Compound I-14], the inhibition constant (Ki) on E. coli Gyrase was 50 to 100 nM; at S. aureus TopoIV, not below 500 nM. In addition, the MIC with Staphylococcus aureus was more than 7 µg/mL; with Streptococcus pneumoniae it was less than 1 µg/mL; in the assay on Haemophilus influenzae, more than 7 µg/mL; in the assay on Enterococcus faecalis, 1 to 7 µg/mL (≈ 2.57 to 18 µM).
With `CCNC(=O)Nc1nc2cc(F)cc(-c3ncccn3)c2[nH]1` [Compound I-15], the inhibitory constant (Ki) is less than 50 nM on E. coli Gyrase and not below 500 nM on S. aureus TopoIV. Besides, the MIC was more than 7 µg/mL in the assay on Staphylococcus aureus, 1 to 7 µg/mL (≈ 3.33 to 23.3 µM) in the assay with Streptococcus pneumoniae, more than 7 µg/mL in the assay with Haemophilus influenzae and 1 to 7 µg/mL (≈ 3.33 to 23.3 µM) with Enterococcus faecalis.
Turning to `CCNC(=O)Nc1nc2cc(C#N)c(F)c(-n3cccn3)c2[nH]1` [Compound I-16], the values for the Ki at E. coli Gyrase and at S. aureus TopoIV were less than 50 nM and not below 500 nM, respectively. In addition, the MIC in the assay on Staphylococcus aureus was more than 7 µg/mL; in the assay on Streptococcus pneumoniae, 1 to 7 µg/mL (≈ 3.19 to 22.3 µM); in the assay with Haemophilus influenzae, more than 7 µg/mL; with Enterococcus faecalis, more than 7 µg/mL.
Regarding `CCNC(=O)Nc1nc2cc(C3CCN(Cc4ccccc4)C(=O)C3)cc(-n3cccn3)c2[nH]1` (centres unmarked) [Compound I-17], the Ki is more than 100 nM on E. coli Gyrase and not above 250 nM at S. aureus TopoIV. The MIC in the assay with Staphylococcus aureus was 1 to 7 µg/mL (≈ 2.19 to 15.3 µM); in the assay on Streptococcus pneumoniae it was less than 1 µg/mL; in the assay on Haemophilus influenzae it was more than 7 µg/mL; in the assay on Enterococcus faecalis it was 1 to 7 µg/mL (≈ 2.19 to 15.3 µM).
In the case of `CCNC(=O)Nc1nc2cc(C3=CC(=O)N(Cc4ccccc4)CC3)cc(-n3cccn3)c2[nH]1` [Compound I-18], the Ki was less than 50 nM at E. coli Gyrase and not above 250 nM at S. aureus TopoIV. The MIC is less than 1 µg/mL in the assay with Staphylococcus aureus, less than 1 µg/mL in the assay with Streptococcus pneumoniae, more than 7 µg/mL in the assay on Haemophilus influenzae and less than 1 µg/mL with Enterococcus faecalis.
On to `CCNC(=O)Nc1nc2cc(C(C)CC(=O)N(C)C)cc(-c3ncccc3F)c2[nH]1` (centres unmarked) [Compound I-19], for which the values for the Ki at E. coli Gyrase and on S. aureus TopoIV were more than 100 nM and not below 500 nM, respectively. Also, the MIC in the assay with Staphylococcus aureus is more than 7 µg/mL; in the assay with Streptococcus pneumoniae it was 1 to 7 µg/mL (≈ 2.42 to 17 µM); in the assay with Haemophilus influenzae, more than 7 µg/mL; in the assay with Enterococcus faecalis, 1 to 7 µg/mL (≈ 2.42 to 17 µM).
